Four molecules from paper PMC6540241, “Targeting Tumor Markers with Antisense Peptides: An Example of Human Prostate Specific Antigen” (International Journal of Molecular Sciences, 2019) can be followed below.

Where no end group is shown, it is not given here. The star is where a group is joined. Biotin = O=C1N[C@H]2[C@H](CS[C@H]2CCCCC(=O)*)N1

B1: N-terminal biotin antisense peptide Biotin-AVRDKVG (peptide)
peptide: Biotin-AVRDKVG
modifications: not fully specified
notes: Some sentences print AKRDKVG; also called biotinylated antisense peptide AVRDKVG; antisense paratope Biotin-AVRDKVG; source: synthetic peptide, bought: GenScript (>97% purity)
B2: Human prostate specific antigen (hPSA) peptide 53–59: RHSLFHP (peptide)
peptide: RHSLFHP
notes: human prostate specific antigen (hPSA), residues 53-59 (R53-P59); 77-83 of the precursor P07288; In the magnetic particle enzyme immunoassay the peptide was coupled by EDC to SPHERO carboxyl magnetic particles; also called sense peptide; source: synthetic peptide, bought: GenScript (>97% purity)

Test [1] concerns the target T1, hPSA peptide RHSLFHP coated onto carboxyl magnetic particles (Homo sapiens, UniProt P07288).
T1 construct: Human prostate specific antigen (hPSA) peptide 53–59: RHSLFHP; purchased GenScript; host or cells: synthetic peptide
Briefly: Magnetic particle enzyme immunoassay (MPEIA). It is filed as binding. Particulars: mismatched peptide, negative control. The procedure: Briefly, the reaction mixture was composed of 2 mL sodium acetate buffer (0.01M, pH 5.0), 2 mg of peptide and 2 mL of 2.5% w/v carboxyl magnetic particles―1.14 μm, 20 mg of EDC. Reactions proceeded in glass reaction tubes overnight at room temperature in a rotary mixer. Tubes were centrifuged at 3000× g for 15 min, supernatant was carefully discarded, and the pellets were washed twice in 4 mL isotonic buffered saline (IBS), followed by centrifugation. After washing, coated magnetic particles were resuspended in 4 mL of PBS containing 0.05% Tween 20.
Two folds serial dilutions (1.09–70 µM) of biotinylated antisense peptide AVRDKVG were made in 96-well microtiter plates to generate standard curves (Figure 4b). Mismatched peptide Biotin-EHFRW was used as a negative control (Figure 4b). A suspension (1.25% w/v) of carboxyl magnetic particles, coated with sense peptide RHSLFHP, was added to each well (40 µL/well). The plates were incubated at room temperature for 30 min and washed with PBS-Tween 20 five times. The washing solution was removed each time using the Spherotech UltraMag Separator (Sperotech, Inc., Lake Forest, IL, USA).
A blocking solution (PBS with 1% BSA) was added to the wells and incubated at room temperature for one hour. […] The absorbances were read at 450 nm on a multiwell plate reader. The data were analyzed using GraphPad Prism software version 5.

Test [2] has as its system human prostate specific antigen (hPSA) in prostate cancer tissue. In words: Immunohistochemical staining of hPSA, protocol 2 (biotinylated peptide instead of primary antibody). Particulars: mismatched peptide, negative control. The procedure:
Immunohistochemistry was performed on deparafinized slides (xylen and a series of ethanol solutions) at room temperature (20–25 °C). The phosphate-buffered saline (PBS) was used, with a pH of 7.2 and containing disodium hydrogen phosphate, sodium chloride, potassium chloride and potassium dihydrogen phosphate was used. PBS stock solution: 4 g KH2PO4, 23 g Na2HPO4, 4 g KCl, 160 g NaCl and 810 mL distilled water. Before staining, 100 mL of stock solution was diluted with 1900 mL of distilled water.
All slides (from seven patients) were selected from the repository of prostate cancer tissue, with diagnosis confirmed by consensus of two independent pathologists. The two pathologists who examined the slides stained with antisense peptides were unconnected with the pathologists who established the initial diagnosis.
Each of the two immunohistochemistry protocols for PSA staining consisted of six steps. Steps 1, 4, 5 and 6 of protocol 1 and protocol 2 were identical, while steps 2 and 3 differed (Figure 5 and Figure 6). For this study, the slides were kept in the dark at room temperature (20–25 °C), to prevent fading as a result of exposure to strong light. They were analyzed using an Olympus BX41 microscope, with an Olympus DP71 camera set to three levels of magnification: less than 40×, 100×, and 500×.
The staining protocol 2 was a modified IHC protocol 1, as follows: In step 2 we used antisense peptide Biotin-AVRDKVG, instead of the primary monoclonal mouse anti-human PSA antibody, in step 3 we used rabbit polyclonal antibody to biotin conjugated to HRP, instead of HRP labeled polymer conjugated to goat anti-mouse immunoglobulins (Figure 5), with peptide Biotin-EHFRW as a negative control (Figure 7). Otherwise, the procedures and chemicals were identical. Quality control for the PSA staining was investigated using NordiQC scoring criteria: 0—Poor; 1—Borderline; 2—Good; 3—Optimal. The scale is presented in Table A2, and the final results given in Table 4 are expressed as a sum of scores.
IHC staining―protocol 2: • The specimen was covered with peroxidase block, i.e., 100 μL of 0.03% hydrogen peroxide containing sodium azide (Dako, Glostrup, Denmark), and incubated for four minutes. Following this, the specimen was gently rinsed with phosphate buffered saline (PBS), and placed in a fresh buffer bath. • Biotinylated antisense peptide AVRDKVG (GenScript, Piscataway, NJ, USA) directed to PSA epitope 53–59 (RHSLFHP) was used to cover the specimen. Five milligrams of Biotin-AVRDKVG antisense was diluted in 2.5 mL PBS. Dilutions 1:10, 1:50, 1:100, 1:200 and 1:500 were applied to cover the specimen. A 100 μL volume was used per section. After 30 min of incubation, each specimen was gently rinsed with PBS and placed in a fresh buffer bath. • Anti-biotin antibody conjugated to HRP (ab34645, Abcam, Cambridge, UK) was applied to cover the specimen. Of the antibody 10 mg/2 mL was diluted 1:100. One hundred microliters of the diluted antibody was applied to cover each specimen, followed by a 30 min incubation. After the incubation, the specimen was gently rinsed with PBS and placed in a fresh buffer bath. • The specimen was covered with 100 μL of AEC + substrate-chromogen solution for 10 min, i.e., 3-amino-9-ethylcarbazole containing hydrogen peroxide, stabilizers, enhancers and an anti-microbial agent (Dako, Glostrup, Denmark). After that period the specimen was again rinsed with PBS. • The slides were immersed in a bath of aqueous hematoxylin (Mayerr’s hematoxylin), and rinsed gently in a distilled water bath. The slides were dipped 10 times into a bath of ammonia (0.037 mol/L), and then rinsed in a bath of distilled water for four minutes. • The specimens were mounted and coverslipped with non-aqueous permanent mounting medium Ultramount.

The target in test [3] is B2. In words: magnetic particle enzyme immunoassay (MPEIA); RHSLFHP coupled by EDC to SPHERO carboxyl magnetic particles; biotinylated peptide in two-fold dilutions 1.09–70 µM, room temperature, 30 min, PBS-Tween 20 washes; detected with streptavidin-peroxidase polymer and OPD, absorbance at 450 nm. The settings on record: both partners purified.
Test [4] concerns the target B1. Briefly: MST; Biotin-AVRDKVG labelled with DY-495 kept constant; unlabelled RHSLFHP titrated 0.0854 µM to 2.8 mM in 10 mM phosphate buffer; Monolith NT.115, standard capillaries. Particulars: both partners purified.

Take “Biotin-EHFRW: N-terminal biotin mismatched peptide, negative control [reference compound]”: the “binding to hPSA epitope RHSLFHP” value in test [1] is on record as “does not bind”.

With “Biotin-EHFRW [N-terminal biotin mismatched peptide, negative control, reference compound]”, in test [2], the “staining of hPSA of the prostate tissue” value is given as “did not stain”.

In general, Kd refers to the constant that tells how readily two partners part at equilibrium. In test [3], B1 had a Kd of 24.6 µM.

For the molecule B2, the affinity in test [4], expressed as Kd, was 24.3 µM.
